pIC50: −log10 of the molar value.

Format in all cases: cell-based
Assay [1] deals with T1, Transient receptor potential vanilloid member 1 (TRPV1) (Rattus norvegicus, UniProt O35433).
T1 construct: Rat TRPV1 cDNA (NM_031982)
The experiment in a line: two-electrode voltage clamp in Xenopus oocytes expressing TRPV1, inhibition of current (reference antagonist). On the technique in general: Two-electrode voltage clamp holds a large cell at a set potential and records current.

Assay [2] concerns the target T1, Transient receptor potential vanilloid member 1 (TRPV1). The experiment in a line: two-electrode voltage clamp in Xenopus oocytes expressing TRPV1, inhibition of capsaicin-induced current.
The target of assay [3] is T2, Transient receptor potential vanilloid member 1 (TRPV1) (Rattus norvegicus, UniProt O35433, N628A).
T2 construct: Rat TRPV1 cDNA (NM_031982), N628A
In words: two-electrode voltage clamp in Xenopus oocytes expressing mutant TRPV1, inhibition of capsaicin-induced current (reduced maximum inhibition). Particulars: read-out: Hill Equation / y = Vmin + (Vmax - Vmin) × x^n/(k^n x^n) / Value.

T1 sequence (O35433 whole entry): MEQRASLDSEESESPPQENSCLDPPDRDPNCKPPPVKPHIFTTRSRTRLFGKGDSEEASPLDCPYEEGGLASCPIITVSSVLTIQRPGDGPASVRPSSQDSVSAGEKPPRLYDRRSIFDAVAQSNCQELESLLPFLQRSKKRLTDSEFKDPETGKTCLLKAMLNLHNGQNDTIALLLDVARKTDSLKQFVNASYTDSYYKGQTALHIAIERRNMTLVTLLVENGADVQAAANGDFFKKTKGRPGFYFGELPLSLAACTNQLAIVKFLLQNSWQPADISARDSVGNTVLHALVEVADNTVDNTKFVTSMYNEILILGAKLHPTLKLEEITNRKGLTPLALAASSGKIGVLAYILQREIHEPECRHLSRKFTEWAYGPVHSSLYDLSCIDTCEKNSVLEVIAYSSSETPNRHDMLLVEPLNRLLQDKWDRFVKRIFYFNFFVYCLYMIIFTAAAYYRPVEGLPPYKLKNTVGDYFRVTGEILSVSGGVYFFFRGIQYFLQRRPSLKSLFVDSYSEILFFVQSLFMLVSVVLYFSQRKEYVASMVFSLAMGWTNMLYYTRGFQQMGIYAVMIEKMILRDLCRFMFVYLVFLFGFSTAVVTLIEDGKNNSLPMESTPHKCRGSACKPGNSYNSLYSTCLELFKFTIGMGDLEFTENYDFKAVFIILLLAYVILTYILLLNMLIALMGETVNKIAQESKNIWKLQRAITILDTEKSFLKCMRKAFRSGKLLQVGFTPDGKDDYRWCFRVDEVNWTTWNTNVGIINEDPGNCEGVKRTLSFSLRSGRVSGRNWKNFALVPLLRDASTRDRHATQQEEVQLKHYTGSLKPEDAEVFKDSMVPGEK
T2 sequence (O35433 whole entry N628A): as the sequence (O35433 whole entry) above, with N628A counted along it

On to `Oc1cc2c(cc1O)CN(C(=S)NCCc1ccc(Cl)cc1)CCC2` [capsazepine], for which, in assay [1], the pIC50 is 5.00.
Regarding `C[C@@H]1O[C@@H](O[C@H]2[C@H](Oc3cc(O)c4c(c3)O[C@H](c3ccc(O)cc3)CC4=O)O[C@H](CO)[C@@H](O)[C@@H]2O)[C@H](O)[C@H](O)[C@H]1O` [naringin], the pIC50 in assay [2] is 4.48; in assay [3] it was 4.62.

Source of the values: paper PMC8773328, “Antioxidative and Analgesic Effects of Naringin through Selective Inhibition of Transient Receptor Potential Vanilloid Member 1” (Antioxidants, 2021).
